# Calls of active or inactive are those of the source.
# Tests used:
# [1] = molecular target: Tyrosine-protein phosphatase non-receptor type 11 (Homo sapiens, UniProt Q06124); test: SHP2 phosphatase inhibition, dose response, selectivity assay for STEP inhibitor project, biochemical (AID 602367); assay type: functional; conditions: read-out: IC50_Mean
# [2] = molecular target: Dual specificity protein phosphatase 3 (Homo sapiens, UniProt P51452); test: VHR phosphatase inhibition, dose response, selectivity assay for STEP inhibitor project, biochemical (AID 602374); assay type: functional; conditions: read-out: IC50_Mean
# [3] = molecular target: Tyrosine-protein phosphatase non-receptor type 5 (Homo sapiens, UniProt P54829); test: STEP phosphatase inhibitors, confirmation, biochemical, fluorescence intensity, uHTS hits (AID 602372); assay type: functional; conditions: read-out: IC50_Mean
# [4] = molecular target: T1, Low molecular weight phosphotyrosine protein phosphatase (Homo sapiens, UniProt P24666); assay type: functional; conditions: read-out: IC50_Mean
# [5] = molecular target: T2, RNA-binding protein pos-1 (Caenorhabditis elegans, UniProt G5EF15); test: inhibitors of POS-1/mex-3 RNA binding, dose response, biochemical, fluorescence polarization (AID 1964);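 note: purified POS-1 fused to maltose binding protein made in E. coli; potency of compounds blocking POS-1 binding to fluorescent RNA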
# T2 sequence (G5EF15 whole entry): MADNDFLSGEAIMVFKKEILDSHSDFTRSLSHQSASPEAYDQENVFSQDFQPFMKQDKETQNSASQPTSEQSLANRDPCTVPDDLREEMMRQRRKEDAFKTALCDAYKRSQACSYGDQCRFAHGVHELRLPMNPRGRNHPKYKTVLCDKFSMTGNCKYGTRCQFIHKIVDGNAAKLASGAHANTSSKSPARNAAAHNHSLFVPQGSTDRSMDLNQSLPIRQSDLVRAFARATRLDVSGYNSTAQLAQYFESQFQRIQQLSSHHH
# [6] = molecular target: T3, Zinc finger protein mex-5 (Caenorhabditis elegans, UniProt Q9XUB2); test: MEX-5/TCR-2 RNA interaction inhibitors, dose response, biochemical, C. elegans, fluorescence polarization (AID 1960)
# T3 sequence (Q9XUB2 whole entry): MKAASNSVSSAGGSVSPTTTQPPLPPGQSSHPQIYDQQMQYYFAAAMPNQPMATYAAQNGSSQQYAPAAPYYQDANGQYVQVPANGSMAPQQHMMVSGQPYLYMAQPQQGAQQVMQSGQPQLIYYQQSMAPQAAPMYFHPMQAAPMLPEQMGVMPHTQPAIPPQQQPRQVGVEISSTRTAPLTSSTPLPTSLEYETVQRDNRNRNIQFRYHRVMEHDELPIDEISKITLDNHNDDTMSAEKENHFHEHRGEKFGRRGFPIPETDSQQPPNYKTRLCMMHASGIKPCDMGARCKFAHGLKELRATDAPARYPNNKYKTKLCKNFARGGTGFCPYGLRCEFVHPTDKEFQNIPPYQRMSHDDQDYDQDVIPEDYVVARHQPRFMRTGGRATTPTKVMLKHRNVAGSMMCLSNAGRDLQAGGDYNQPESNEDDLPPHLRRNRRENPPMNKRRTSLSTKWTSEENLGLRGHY
# [7] = molecular target: T1, Low molecular weight phosphotyrosine protein phosphatase; assay type: functional; conditions: read-out: IC50_Mean; remark: listed apart in the source
# [8] = molecular target: Hepatocyte nuclear factor 4-alpha (Homo sapiens, UniProt P41235); assay type: functional, cell-based;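 note: biochemical luminescence-based dose-response counterscreen measuring inhibition of HNF4 dimerization, run alongside a screen for blockers of ABHD5–perilipin-5 interaction; split luciferase complementation of HNF4 fusion proteins in cell lysate measuring dimerization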
# [9] = molecular target: Induced myeloid leukemia cell differentiation protein Mcl-1 (Homo sapiens, UniProt Q07820); assay type: functional
# [10] = Luminescence Cell-Based Dose Response HTS to Identify Inhibitors of 5'UTR Stem-Loop Driven Prion Protein mRNA Translation in H4 Neuroglioblastoma Cells. [Related pubchem assays: 1827 (Project Summary), 1813 (Primary HTS)]; assay type: functional
# [11] = HepG2 cell cytotoxicity, dose response, cytotoxicity control for non-replicating M. tuberculosis project (AID 489018); assay type: functional; conditions: Mycobacterium tuberculosis
# [12] = inhibitors of SNCA 5'UTR-driven reporter translation, confirmation, H4 neuroglioma cells, luminescence (AID 1988); assay type: functional, cell-based
# [13] = inhibitors of firefly luciferase expression or activity, dose response, H4 neuroglioma cells, luminescence (AID 1990); assay type: functional, cell-based
# [14] = Vero E6 cell cytotoxicity, dose response, cytotoxicity control for non-replicating M. tuberculosis project, secondary assay (AID 492998); assay type: functional, VeroE6; conditions: Vero C1008
# Melanocortin receptor 4 [15] = molecular target: T4, Melanocortin receptor 4 (Homo sapiens, UniProt P32245); assay type: functional, cell-based;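 note: Cell-based assay with luminescence read-out, confirmatory dose-response testing for agonist activity of biased ligands at MC4R; human U2OS cells with tagged receptor and beta-arrestin; potency of agonists that increase receptor coupling to beta-arrestin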
# [16] = THP-1 cell cytotoxicity, dose response, cytotoxicity control for non-replicating M. tuberculosis project (AID 489025); assay type: functional
# cells = assay type: functional
# Steroidogenic factor 1 = Steroidogenic factor 1 (Homo sapiens, UniProt Q13285); test: Counterscreen for inverse agonists of the liver receptor homolog-1 (LRH-1; NR5A2): Luminescence-based cell-based high throughput dose response assay to identify inverse agonists of the Steroidogenic Factor 1 Nuclear Receptor (SF1; NR5A1).; assay type: functional
# [17] = molecular target: Nuclear receptor subfamily 5 group A member 2 (Homo sapiens, UniProt O00482); assay type: functional, cell-based;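 note: HEK293T cells transfected with LRH-1 and a StAR promoter luciferase reporter; potency for inhibitors that lower LRH-1 driven reporter light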
# [18] = molecular target: Luciferin 4-monooxygenase (Photinus pyralis, UniProt P08659); test: firefly luciferase enzyme inhibitors, dose response, biochemical, luminescence (AID 1891)
# [19] = Luminescence Cell-Based Dose Confirmation HTS to Identify Inhibitors of Platelet Dense Granule Release. [Related pubchem assays: 1663 (Primary HTS), 1678 (Summary of Project)]; assay type: functional
# [20] = StAR promoter reporter inhibition counter-screen, dose response, counter-screen for LRH-1 inverse agonist project, cell-based, luminescence, luciferase reporter (AID 651969); assay type: functional
# Protein RecA = molecular target: T5, Protein RecA (Mycobacterium tuberculosis, UniProt P9WHJ3); test: Fluorescence Cell-Free Homogeneous Dose Retest to Identify Inhibitors of RecA-Intein Splicing Activity. [Related pubchem assays (depositor defined):AID2097, AID2223, AID489010, AID492950]; assay type: functional
# T5 sequence (P9WHJ3 whole entry): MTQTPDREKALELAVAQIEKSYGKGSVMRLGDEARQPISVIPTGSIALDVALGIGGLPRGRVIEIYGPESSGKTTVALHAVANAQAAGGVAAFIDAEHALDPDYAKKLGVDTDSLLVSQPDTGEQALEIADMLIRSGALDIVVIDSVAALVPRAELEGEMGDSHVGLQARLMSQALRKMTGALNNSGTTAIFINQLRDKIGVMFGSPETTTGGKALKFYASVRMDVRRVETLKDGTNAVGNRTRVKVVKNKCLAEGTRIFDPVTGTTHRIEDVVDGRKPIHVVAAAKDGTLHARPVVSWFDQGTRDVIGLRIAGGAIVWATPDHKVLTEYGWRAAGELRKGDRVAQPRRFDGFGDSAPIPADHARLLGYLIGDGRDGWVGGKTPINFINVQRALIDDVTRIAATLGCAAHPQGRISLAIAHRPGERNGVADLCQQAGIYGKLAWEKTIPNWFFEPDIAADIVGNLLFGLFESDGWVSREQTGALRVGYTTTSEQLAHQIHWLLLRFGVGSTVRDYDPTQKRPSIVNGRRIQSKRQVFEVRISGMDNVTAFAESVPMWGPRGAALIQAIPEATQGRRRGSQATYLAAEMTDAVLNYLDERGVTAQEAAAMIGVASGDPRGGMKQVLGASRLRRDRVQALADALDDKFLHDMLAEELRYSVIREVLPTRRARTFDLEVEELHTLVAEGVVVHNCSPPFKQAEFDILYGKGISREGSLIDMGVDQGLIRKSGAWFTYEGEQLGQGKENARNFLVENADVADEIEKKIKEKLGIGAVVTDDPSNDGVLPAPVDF
# [21] = nonselective inhibitors of cellular cAMP signaling, dose response, counter-screen for MC4R biased antagonist project, cell-based, TR-FRET cAMP detection (AID 602305); assay type: functional;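 note: U2OS cells stimulated with forskolin near its EC80 as the cAMP inducer; potency is for inhibition of forskolin-stimulated cAMP signaling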
# Melanocortin receptor 4 [22] = molecular target: T4, Melanocortin receptor 4; test: MC4R antagonist potency on cAMP, dose response, cell-based, TR-FRET, biased antagonists (AID 602298); assay type: functional;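 note: antagonist potency against agonist-stimulated cAMP production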
# [23] = molecular target: T6, Replicative DNA helicase DnaB (Mycobacterium tuberculosis, UniProt P9WMR3); test: DnaB intein splicing inhibitors, dose response, biochemical, cell-free fluorescence (AID 449749); assay type: functional
# T6 sequence (P9WMR3 whole entry): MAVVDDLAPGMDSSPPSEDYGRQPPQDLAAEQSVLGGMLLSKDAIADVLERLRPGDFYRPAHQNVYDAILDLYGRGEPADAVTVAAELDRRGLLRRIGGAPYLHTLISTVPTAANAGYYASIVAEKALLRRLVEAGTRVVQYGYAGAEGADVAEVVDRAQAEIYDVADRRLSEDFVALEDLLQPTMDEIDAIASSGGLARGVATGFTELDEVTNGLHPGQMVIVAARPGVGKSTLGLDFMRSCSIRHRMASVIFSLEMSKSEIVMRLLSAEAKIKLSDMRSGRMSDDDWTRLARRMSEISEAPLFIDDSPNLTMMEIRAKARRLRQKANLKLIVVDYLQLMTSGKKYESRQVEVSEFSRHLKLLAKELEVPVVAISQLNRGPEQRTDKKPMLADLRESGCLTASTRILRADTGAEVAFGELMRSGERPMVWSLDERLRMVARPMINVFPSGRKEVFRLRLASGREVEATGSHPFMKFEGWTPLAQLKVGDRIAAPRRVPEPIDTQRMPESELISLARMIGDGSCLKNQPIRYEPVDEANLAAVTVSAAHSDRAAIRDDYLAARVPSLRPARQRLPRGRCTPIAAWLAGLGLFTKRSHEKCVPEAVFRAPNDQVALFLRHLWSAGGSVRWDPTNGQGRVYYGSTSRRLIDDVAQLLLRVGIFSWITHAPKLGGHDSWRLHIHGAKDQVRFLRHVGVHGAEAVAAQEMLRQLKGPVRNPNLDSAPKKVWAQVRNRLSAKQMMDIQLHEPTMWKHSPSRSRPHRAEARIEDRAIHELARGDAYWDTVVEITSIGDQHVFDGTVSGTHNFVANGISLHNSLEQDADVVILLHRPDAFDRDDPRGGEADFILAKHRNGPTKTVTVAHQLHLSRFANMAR
# [24] = HepG2 cell cytotoxicity, dose response, cytotoxicity control for Shn3 inhibitor project, CellTiter-Glo, cherry-picked (AID 624134); assay type: functional, cell-based
# [25] = Shn3 3'UTR reporter inhibitors, dose response, cell-based, Clone20 osteoblasts, firefly luciferase, cherry-picked (AID 624132); assay type: functional;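 note: firefly luciferase luminescence from reporter carrying the Shn3 3'UTR in osteoblasts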
# [26] = control 3'UTR Renilla luciferase suppression, dose response, counter-screen for Shn3 inhibitor project, cell-based, Clone20-Shn3RL, cherry-picked (AID 624133); assay type: functional
# [27] = Fluorescence-based cell-based high throughput dose response assay for inhibitors of the interaction of nucleotide-binding oligomerization domain containing 2 (NOD2) and the receptor-interacting serine-threonine kinase 2 (RIPK2).; assay type: functional; conditions: Homo sapiens
# Beta Lactamase = Beta Lactamase (Pseudomonas aeruginosa, UniProt Q932Y6); test: beta-lactamase reporter inhibitor potency, dose response, artefact control for NOD2-RIPK2 interaction inhibitor project, BLA reporter cells, FRET fluorescence (AID 651552); assay type: functional, cell-based
# Vero = test: cells; assay type: functional; conditions: Chlorocebus sabaeus
# [28] = molecular target: V-type proton ATPase subunit c' (Saccharomyces cerevisiae S288c, UniProt P32842); test: Dose Response of Small Molecules that Regulate V-ATPase Proton Transport in Yeast using pHLuorin, Cherry Pick 2.; assay type: functional; conditions: read-out: EC50_MICROM
# Sequence of V-type proton ATPase subunit c' (P32842 whole entry): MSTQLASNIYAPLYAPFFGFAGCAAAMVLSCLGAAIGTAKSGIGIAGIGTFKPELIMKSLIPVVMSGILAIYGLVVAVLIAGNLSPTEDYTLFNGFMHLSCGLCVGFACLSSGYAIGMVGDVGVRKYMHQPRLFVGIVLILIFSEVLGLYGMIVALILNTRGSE
# T1 sequence (P24666 whole entry, the tested form may be a part): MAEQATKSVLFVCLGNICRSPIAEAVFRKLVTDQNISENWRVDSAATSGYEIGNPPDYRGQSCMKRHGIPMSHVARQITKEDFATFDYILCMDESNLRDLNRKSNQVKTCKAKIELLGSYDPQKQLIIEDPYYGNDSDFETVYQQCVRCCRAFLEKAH
# T4 sequence (P32245 whole entry): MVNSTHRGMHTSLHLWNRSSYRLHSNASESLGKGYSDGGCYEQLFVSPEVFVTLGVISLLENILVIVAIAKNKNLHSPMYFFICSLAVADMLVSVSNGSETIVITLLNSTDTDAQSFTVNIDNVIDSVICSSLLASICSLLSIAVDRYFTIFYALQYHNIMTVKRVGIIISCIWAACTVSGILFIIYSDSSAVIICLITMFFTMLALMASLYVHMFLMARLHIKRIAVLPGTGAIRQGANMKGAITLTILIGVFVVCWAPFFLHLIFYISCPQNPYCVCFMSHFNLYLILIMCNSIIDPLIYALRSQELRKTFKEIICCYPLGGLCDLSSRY
# Sequence of Induced myeloid leukemia cell differentiation protein Mcl-1 (Q07820 whole entry): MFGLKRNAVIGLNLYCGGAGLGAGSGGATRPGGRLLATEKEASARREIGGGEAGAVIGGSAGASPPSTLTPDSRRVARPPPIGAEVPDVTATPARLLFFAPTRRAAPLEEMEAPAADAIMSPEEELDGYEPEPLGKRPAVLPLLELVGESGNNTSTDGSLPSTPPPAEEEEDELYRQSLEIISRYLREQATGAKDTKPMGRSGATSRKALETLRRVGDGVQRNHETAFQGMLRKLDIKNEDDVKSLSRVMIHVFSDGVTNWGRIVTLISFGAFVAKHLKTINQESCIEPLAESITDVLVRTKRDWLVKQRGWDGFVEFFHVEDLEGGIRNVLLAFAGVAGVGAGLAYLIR
# Sequence of Hepatocyte nuclear factor 4-alpha (P41235 whole entry, the tested form may be a part): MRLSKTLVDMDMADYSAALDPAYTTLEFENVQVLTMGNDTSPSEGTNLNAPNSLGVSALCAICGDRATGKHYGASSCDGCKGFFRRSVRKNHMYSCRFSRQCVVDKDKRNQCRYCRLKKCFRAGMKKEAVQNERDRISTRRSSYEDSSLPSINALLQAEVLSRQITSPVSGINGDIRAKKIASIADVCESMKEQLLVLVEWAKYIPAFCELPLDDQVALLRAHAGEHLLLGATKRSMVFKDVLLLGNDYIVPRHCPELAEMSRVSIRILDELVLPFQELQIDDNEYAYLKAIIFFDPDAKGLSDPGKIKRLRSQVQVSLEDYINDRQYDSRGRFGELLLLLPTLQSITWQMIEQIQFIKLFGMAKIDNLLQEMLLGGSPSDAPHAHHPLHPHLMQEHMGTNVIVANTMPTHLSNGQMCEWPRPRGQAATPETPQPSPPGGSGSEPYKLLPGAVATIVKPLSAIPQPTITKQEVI
# Sequence of Tyrosine-protein phosphatase non-receptor type 5 (P54829 whole entry): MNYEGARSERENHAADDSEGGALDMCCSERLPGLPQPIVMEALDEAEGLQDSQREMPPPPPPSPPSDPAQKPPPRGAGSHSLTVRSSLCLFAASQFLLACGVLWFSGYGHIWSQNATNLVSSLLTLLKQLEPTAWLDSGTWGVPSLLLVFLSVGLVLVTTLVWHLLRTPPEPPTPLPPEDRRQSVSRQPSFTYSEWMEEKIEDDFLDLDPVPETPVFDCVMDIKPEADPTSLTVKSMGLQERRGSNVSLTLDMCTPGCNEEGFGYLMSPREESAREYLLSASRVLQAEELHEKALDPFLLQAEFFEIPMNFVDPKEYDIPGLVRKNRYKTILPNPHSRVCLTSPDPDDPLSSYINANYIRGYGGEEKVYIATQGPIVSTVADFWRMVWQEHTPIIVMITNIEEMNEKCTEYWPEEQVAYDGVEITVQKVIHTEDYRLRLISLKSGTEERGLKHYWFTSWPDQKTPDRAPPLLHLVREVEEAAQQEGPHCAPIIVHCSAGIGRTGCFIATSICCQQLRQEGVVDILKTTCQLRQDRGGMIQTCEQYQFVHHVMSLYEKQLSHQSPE
# Sequence of Beta Lactamase (Q932Y6 whole entry): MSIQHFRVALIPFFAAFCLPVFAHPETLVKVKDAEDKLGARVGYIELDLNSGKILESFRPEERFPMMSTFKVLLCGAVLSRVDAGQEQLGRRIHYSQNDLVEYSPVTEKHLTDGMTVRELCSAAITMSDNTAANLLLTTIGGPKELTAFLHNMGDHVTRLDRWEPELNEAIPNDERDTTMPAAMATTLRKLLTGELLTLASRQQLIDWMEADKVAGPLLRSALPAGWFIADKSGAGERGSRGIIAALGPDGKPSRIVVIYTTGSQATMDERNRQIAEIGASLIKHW
# Sequence of Dual specificity protein phosphatase 3 (P51452 whole entry): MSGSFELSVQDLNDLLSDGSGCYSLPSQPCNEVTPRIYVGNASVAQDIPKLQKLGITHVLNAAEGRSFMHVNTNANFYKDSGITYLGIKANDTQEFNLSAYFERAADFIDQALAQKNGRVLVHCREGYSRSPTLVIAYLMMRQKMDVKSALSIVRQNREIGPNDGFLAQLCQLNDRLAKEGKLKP
# Sequence of Tyrosine-protein phosphatase non-receptor type 11 (Q06124 whole entry): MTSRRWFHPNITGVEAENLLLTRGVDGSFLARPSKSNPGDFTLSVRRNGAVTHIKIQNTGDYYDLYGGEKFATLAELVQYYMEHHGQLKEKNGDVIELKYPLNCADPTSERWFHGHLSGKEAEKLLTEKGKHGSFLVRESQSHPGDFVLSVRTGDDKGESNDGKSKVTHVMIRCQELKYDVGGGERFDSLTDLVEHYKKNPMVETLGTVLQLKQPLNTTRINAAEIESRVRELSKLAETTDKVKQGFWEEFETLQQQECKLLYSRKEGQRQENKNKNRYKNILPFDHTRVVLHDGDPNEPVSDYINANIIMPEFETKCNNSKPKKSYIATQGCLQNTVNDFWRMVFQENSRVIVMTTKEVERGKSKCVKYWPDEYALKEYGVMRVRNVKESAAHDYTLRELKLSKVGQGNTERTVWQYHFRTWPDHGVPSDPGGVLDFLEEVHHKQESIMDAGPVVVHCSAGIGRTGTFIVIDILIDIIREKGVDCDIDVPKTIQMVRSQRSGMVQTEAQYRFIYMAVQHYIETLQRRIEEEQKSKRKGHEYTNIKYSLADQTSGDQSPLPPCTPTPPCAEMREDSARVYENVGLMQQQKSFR
# Sequence of Luciferin 4-monooxygenase (P08659 whole entry): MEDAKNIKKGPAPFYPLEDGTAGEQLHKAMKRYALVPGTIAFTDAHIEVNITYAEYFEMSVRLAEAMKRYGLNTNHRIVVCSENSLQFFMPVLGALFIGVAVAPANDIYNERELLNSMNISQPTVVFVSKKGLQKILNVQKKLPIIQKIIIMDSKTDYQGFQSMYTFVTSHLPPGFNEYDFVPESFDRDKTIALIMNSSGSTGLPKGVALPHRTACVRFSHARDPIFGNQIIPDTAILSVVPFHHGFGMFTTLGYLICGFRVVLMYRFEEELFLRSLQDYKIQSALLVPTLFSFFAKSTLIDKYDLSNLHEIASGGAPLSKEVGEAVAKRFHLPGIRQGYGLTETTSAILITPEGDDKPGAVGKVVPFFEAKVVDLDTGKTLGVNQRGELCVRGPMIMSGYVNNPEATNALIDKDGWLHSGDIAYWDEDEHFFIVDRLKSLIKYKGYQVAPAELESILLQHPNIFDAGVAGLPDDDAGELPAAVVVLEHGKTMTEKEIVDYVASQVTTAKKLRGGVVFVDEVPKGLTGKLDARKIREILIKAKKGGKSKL
# Sequence of Steroidogenic factor 1 (Q13285 whole entry): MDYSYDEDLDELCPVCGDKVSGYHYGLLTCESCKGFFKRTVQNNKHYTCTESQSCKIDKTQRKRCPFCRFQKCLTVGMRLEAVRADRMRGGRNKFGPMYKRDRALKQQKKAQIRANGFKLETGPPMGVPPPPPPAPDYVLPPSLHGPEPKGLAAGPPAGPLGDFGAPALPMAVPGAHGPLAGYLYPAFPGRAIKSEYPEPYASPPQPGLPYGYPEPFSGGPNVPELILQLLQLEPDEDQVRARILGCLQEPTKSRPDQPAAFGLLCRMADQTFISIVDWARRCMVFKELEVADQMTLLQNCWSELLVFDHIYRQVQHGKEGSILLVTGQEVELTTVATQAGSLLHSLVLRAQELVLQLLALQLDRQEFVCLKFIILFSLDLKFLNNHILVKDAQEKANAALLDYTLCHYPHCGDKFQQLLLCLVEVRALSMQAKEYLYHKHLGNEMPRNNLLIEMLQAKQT
# Sequence of Nuclear receptor subfamily 5 group A member 2 (O00482 whole entry): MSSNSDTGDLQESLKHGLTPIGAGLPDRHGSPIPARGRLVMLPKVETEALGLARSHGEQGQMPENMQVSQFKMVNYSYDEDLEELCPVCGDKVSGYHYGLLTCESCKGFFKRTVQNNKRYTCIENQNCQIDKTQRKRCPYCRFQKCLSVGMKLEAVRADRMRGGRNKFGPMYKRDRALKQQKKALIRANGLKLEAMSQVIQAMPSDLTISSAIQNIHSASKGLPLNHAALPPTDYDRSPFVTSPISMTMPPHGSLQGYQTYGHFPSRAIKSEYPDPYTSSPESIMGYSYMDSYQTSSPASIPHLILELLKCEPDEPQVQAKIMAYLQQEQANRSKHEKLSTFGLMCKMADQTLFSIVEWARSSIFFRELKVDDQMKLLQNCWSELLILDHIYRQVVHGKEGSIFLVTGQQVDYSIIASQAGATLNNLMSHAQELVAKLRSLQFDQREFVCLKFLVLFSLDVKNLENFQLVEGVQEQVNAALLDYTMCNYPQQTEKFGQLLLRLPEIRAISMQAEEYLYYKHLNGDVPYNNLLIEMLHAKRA
smiles,measurement,setting,value
Cc1ccc(NC(=O)CCn2c(=S)oc3ccccc32)cc1F,IC50,[1],3.14 µM (active)
same,IC50,[2],7.02 µM (active)
same,IC50,[3],> 80 µM (inactive)
N#CC1=C(N)OC2=C(C(=O)CC(c3ccco3)C2)C1c1ccc(OCc2c(F)cccc2Cl)cc1 (stereo not drawn),IC50,[4],> 80 µM (inactive)
same,EC50,[5],> 300 µM (not active)
same,EC50,[6],> 300 µM (not active)
same,IC50,[7],35.1 µM (inactive)
Cc1cccc(NC(=O)CSc2nnc(-c3ccco3)c(-c3ccco3)n2)c1,IC50,[8],1.42 µM (active)
same,IC50,[9],5.78 µM (active)
CN(C)CCCN(C(=O)CCc1ccccc1)c1nc2ccc(Cl)cc2s1,EC50,[10],> 120 µM (not active)
same,CC50,[11],12.4 µM (active)
same,EC50,[12],> 120 µM (not active)
same,EC50,[13],> 60 µM (not active)
same,CC50,[14],17.1 µM (active)
same,EC50,Melanocortin receptor 4 [15],> 89.2 µM (inactive)
same,CC50,[16],16.6 µM (active)
same,IC50,cells,22.9 µM (active)
CCC(=O)Nc1nnc(SCC(=O)NCCc2ccc(OC)c(OC)c2)s1,IC50,Steroidogenic factor 1,2.05 µM (active)
same,IC50,[17],12 µM (inactive)
same,EC50,[18],> 112 µM (not active)
same,EC50,[19],> 112 µM (not active)
same,IC50,[20],35.9 µM (inactive)
Cc1cccc(CS(=O)(=O)c2ncc(Cl)c(C(=O)NCc3ccc4c(c3)OCO4)n2)c1,EC50,Protein RecA,3.52 µM (active)
same,IC50,[21],> 64.6 µM (inactive)
same,IC50,Melanocortin receptor 4 [22],> 64.6 µM (inactive)
same,AC50,[23],3.39 µM (active)
same,AC50,[24],41.3 µM (active)
same,AC50,[25],0.938 µM (active)
same,AC50,[26],11.3 µM (active)
same,IC50,[27],3.95 µM (active)
same,IC50,Beta Lactamase,21.1 µM (inactive)
CN1C(=O)/C(=C\c2ccc(Br)s2)C(=O)NC1=S,CC50,Vero,22.9 µM (active)
same,EC50,[28],6.43 µM (active)
